Test [1] has as its target T1, Cavα2δ-1.
T1 construct: gene CACNA2D1; chemically synthesized peptide surrounding the K615 locus ([…]; peptide P3)
Briefly: SPR (Biacore) on immobilized peptide. The test is classed as binding, Oryctolagus cuniculus.

For test [2], the system named is T1, Cavα2δ-1. Briefly: SPR (Biacore) on immobilized peptide; also […] lowers Cav2.[…] current in tsA201 cells, lost with R243A or K615A Cavα[…]δ-1. It is filed as binding, Oryctolagus cuniculus. On the technique in general: In SPR one partner is held on a chip, and binding of the other changes the refractive index at the surface.

A word on the Kd: it is the concentration at which binding is half-saturated. A low value points to a tighter complex. At Cavα2δ-1 [1], `CCC1=C[C@@H]2[C@H](C1)C[C@]2(CN)Cc1nnn[nH]1` [NVA1309] registered a Kd of 273 ± 101 µM.

On to `CCC1=C[C@@H]2[C@H](C1)C[C@]2(CN)CC(=O)O` [mirogabalin], for which, in the test with Cavα2δ-1 [2], the Kd amounted to 161 ± 60 µM.

For the origin of these results see publication PMC11308618, “Determinants of interactions of a novel next-generation gabapentinoid NVA1309 and mirogabalin with the Cavα2δ-1 subunit” (Molecular Brain, 2024).
